Assay results as given in ChEMBL document CHEMBL3608296, “Synthesis of sulfonamides incorporating piperazinyl-ureido moieties and their carbonic anhydrase I, II, IX and XII inhibitory activity” (Bioorg Med Chem Lett, 2015).

Columns and labels:
Carbonic anhydrase 9 [1] = biological target: T1, Carbonic anhydrase 9 (Homo sapiens, UniProt Q16790); conditions: at 0.1 µM
Description: Inhibition of human carbonic anhydrase 9 at 10^-7 M preincubated for 15 mins by stopped flow CO2 hydration method relative to control

Carbonic anhydrase 9 [2] = biological target: T1, Carbonic anhydrase 9; conditions: at 1 µM
Description: Inhibition of human carbonic anhydrase 9 at 10^-6 M preincubated for 15 mins by stopped flow CO2 hydration method relative to control

[3] = biological target: Carbonic anhydrase 12 (Homo sapiens) (UniProt O43570); conditions: at 0.1 µM
Description: Inhibition of human carbonic anhydrase 12 at 10^-7 M preincubated for 15 mins by stopped flow CO2 hydration method relative to control

Carbonic anhydrase 9 [4] = biological target: T1, Carbonic anhydrase 9; conditions: at 0.001 µM
Description: Inhibition of human carbonic anhydrase 9 at 10^-9 M preincubated for 15 mins by stopped flow CO2 hydration method relative to control

[5] = biological target: Carbonic anhydrase 12 (Homo sapiens) (UniProt O43570); conditions: at 1 µM
Description: Inhibition of human carbonic anhydrase 12 at 10^-6 M preincubated for 15 mins by stopped flow CO2 hydration method relative to control

Carbonic anhydrase 9 [6] = biological target: T1, Carbonic anhydrase 9; conditions: at 0.01 µM
Description: Inhibition of human carbonic anhydrase 9 at 10^-8 M preincubated for 15 mins by stopped flow CO2 hydration method relative to control

[7] = biological target: Carbonic anhydrase 12 (Homo sapiens) (UniProt O43570); conditions: at 0.001 µM
Description: Inhibition of human carbonic anhydrase 12 at 10^-9 M preincubated for 15 mins by stopped flow CO2 hydration method relative to control

[8] = biological target: Carbonic anhydrase 12 (Homo sapiens) (UniProt O43570); conditions: at 0.01 µM
Description: Inhibition of human carbonic anhydrase 12 at 10^-8 M preincubated for 15 mins by stopped flow CO2 hydration method relative to control

Carbonic anhydrase 9 [9] = biological target: T1, Carbonic anhydrase 9
Description: Inhibition of human carbonic anhydrase 9 preincubated for 15 mins by stopped flow CO2 hydration method

Carbonic anhydrase 1 = Carbonic anhydrase 1 (Homo sapiens, UniProt P00915); test: Inhibition of human carbonic anhydrase 1 preincubated for 15 mins by stopped flow CO2 hydration method
Carbonic anhydrase 1, sequence (P00915 whole entry): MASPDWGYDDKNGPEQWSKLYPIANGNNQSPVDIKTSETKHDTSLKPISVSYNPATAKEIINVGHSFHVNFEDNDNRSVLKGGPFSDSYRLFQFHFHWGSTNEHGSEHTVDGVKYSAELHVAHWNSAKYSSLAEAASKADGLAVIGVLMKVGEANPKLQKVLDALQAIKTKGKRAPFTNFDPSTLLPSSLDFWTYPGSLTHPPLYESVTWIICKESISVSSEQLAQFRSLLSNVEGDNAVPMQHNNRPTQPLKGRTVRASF

Carbonic anhydrase 12 (Homo sapiens), sequence (O43570 whole entry): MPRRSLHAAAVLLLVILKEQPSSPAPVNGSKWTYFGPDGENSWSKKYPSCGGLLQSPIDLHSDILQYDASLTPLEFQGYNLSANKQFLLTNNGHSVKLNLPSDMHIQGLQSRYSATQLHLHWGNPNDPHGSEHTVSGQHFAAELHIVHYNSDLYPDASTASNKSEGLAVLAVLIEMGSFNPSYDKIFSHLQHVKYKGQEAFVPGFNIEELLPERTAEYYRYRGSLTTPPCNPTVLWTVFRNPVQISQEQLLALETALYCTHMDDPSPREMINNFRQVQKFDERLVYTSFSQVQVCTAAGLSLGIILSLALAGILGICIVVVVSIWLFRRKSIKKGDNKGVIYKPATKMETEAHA

Structure (SMILES) | inhibition (Carbonic anhydrase 9 [1]) | inhibition (Carbonic anhydrase 9 [2]) | inhibition [3] | inhibition (Carbonic anhydrase 9 [4]) | inhibition [5] | inhibition (Carbonic anhydrase 9 [6]) | inhibition [7] | inhibition [8] | Ki (Carbonic anhydrase 9 [9]) | Ki (Carbonic anhydrase 1)
COc1ccc(CC(=O)N2CCN(C(=O)Nc3ccc(S(N)(=O)=O)cc3)CC2)cc1 | 49% | 55% | 49% | 36% | 51% | 47% | 34% | 46% |  | 
NS(=O)(=O)c1ccc(NC(=O)N2CCN(c3ccc(F)cc3)CC2)cc1 |  |  |  |  |  |  |  |  | 9.9 nM | 
NS(=O)(=O)c1ccc(NC(=O)N2CCN(c3nccc(C(F)(F)F)n3)CC2)cc1 |  |  |  |  |  |  |  |  | 134 nM | 
NS(=O)(=O)c1ccc(NC(=O)N2CCN(c3cccc(Cl)c3)CC2)cc1 |  |  |  |  |  |  |  |  | 233 nM | 
NS(=O)(=O)c1ccc(NC(=O)N2CCN(C(=O)Cc3ccc(Cl)cc3Cl)CC2)cc1 | 49% | 54% | 48% | 38% | 51% | 48% | 34% | 42% |  | 
COc1ccc(N2CCN(C(=O)Nc3ccc(S(N)(=O)=O)cc3)CC2)cc1 |  |  |  |  |  |  |  |  | 409 nM | 
NS(=O)(=O)c1ccc(NC(=O)N2CCN(Cc3ccc(Cl)cc3)CC2)cc1 |  |  |  |  |  |  |  |  | 39.6 nM | 
CC(C)(C)c1ccc(N2CCN(C(=O)Nc3ccc(S(N)(=O)=O)cc3)CC2)cc1 |  |  |  |  |  |  |  |  | 129 nM | 
NS(=O)(=O)c1ccc(NC(=O)N2CCN(c3ccccc3)CC2)cc1 |  |  |  |  |  |  |  |  | 8.7 nM | 
COc1cc(CC(=O)N2CCN(C(=O)Nc3ccc(S(N)(=O)=O)cc3)CC2)cc(OC)c1O | 52% | 55% | 49% | 37% | 51% | 41% | 34% | 45% |  | 
COc1cccc(N2CCN(C(=O)Nc3ccc(S(N)(=O)=O)cc3)CC2)c1 |  |  |  |  |  |  |  |  | 39.6 nM | 
NS(=O)(=O)c1ccc(NC(=O)N2CCN(c3ccc(Cl)cc3)CC2)cc1 |  |  |  |  |  |  |  |  | 320 nM | > 10000 nM
N#Cc1cccnc1N1CCN(C(=O)Nc2ccc(S(N)(=O)=O)cc2)CC1 |  |  |  |  |  |  |  |  | 202 nM | 
NS(=O)(=O)c1ccc(NC(=O)N2CCN(c3ccc(Cl)c(Cl)c3)CC2)cc1 |  |  |  |  |  |  |  |  | 268 nM | 
COc1ccccc1N1CCN(C(=O)Nc2ccc(S(N)(=O)=O)cc2)CC1 |  |  |  |  |  |  |  |  | 237 nM | 
NS(=O)(=O)c1ccc(NC(=O)N2CCN(C(=O)COc3ccc(Cl)cc3Cl)CC2)cc1 | 51% | 56% | 48% | 33% | 51% | 49% | 29% | 43% |  | 
NS(=O)(=O)c1ccc(NC(=O)N2CCN(C(=O)Cc3ccc(Cl)cc3)CC2)cc1 | 47% | 51% | 47% | 37% | 51% | 45% | 34% | 40% |  | 
NS(=O)(=O)c1ccc(NC(=O)N2CCN(C(=O)COc3ccc(Cl)cc3)CC2)cc1 | 48% | 52% | 49% | 36% | 52% | 47% | 30% | 47% |  | 
NS(=O)(=O)c1ccc(NC(=O)N2CCN(C(=O)Cc3ccc(O)cc3)CC2)cc1 | 48% | 52% | 49% | 34% | 58% | 45% | 33% | 46% |  | 
NS(=O)(=O)c1ccc(NC(=O)N2CCN(C(=O)Cc3ccccc3)CC2)cc1 | 49% | 54% | 47% | 38% | 51% | 44% | 26% | 44% |  | 
NS(=O)(=O)c1ccc(NC(=O)N2CCN(C(=O)COc3ccccc3)CC2)cc1 | 53% | 55% | 49% | 22% | 51% | 35% | 36% | 46% |  | 
NS(=O)(=O)c1ccc(NC(=O)N2CCN(c3ncccc3C(F)(F)F)CC2)cc1 |  |  |  |  |  |  |  |  | 280 nM | 
NS(=O)(=O)c1ccc(NC(=O)N2CCN(c3ccc(C(F)(F)F)cn3)CC2)cc1 |  |  |  |  |  |  |  |  | 514 nM | 
NS(=O)(=O)c1ccc(NC(=O)N2CCN(Cc3ccccc3)CC2)cc1 |  |  |  |  |  |  |  |  | 462 nM | 
NS(=O)(=O)c1ccc(NC(=O)N2CCN(c3ccccn3)CC2)cc1 |  |  |  |  |  |  |  |  | 487 nM | 
